These are literature values, as cited in patent publication US7199111B2, “Aqueous ifosfamide compositions for parenteral administration and a process for their preparations” (Bharat Serums & Vaccines Ltd., priority 2002, dated 2007).

The conditions of data set [1]: Ifosfamide in water.
Data set [2] relates to mouse. As to conditions: intravenous administration, reported.

As to `O=P1(NCCCl)OCCCN1CCCl` (centres unmarked) [Ifosfamide, 3-(2-chloroethyl)-2-[(2-chloroethyl)amino]-tetrahydro-2H-1,3,2-oxazaphosphorin-2-oxide], the water solubility result in data set [1] is “about 100 mg/ml”. In data set [2], the LD50 is listed as 338 mg/kg body weight.
